Experiment [1] deals with T1, Beta-secretase 1 (Homo sapiens, UniProt P56817). The experiment can be described thus: Inhibition of BACE1 by FRET assay. Also on record: concentration or dose not given beside the values. The conditions noted are these: concentration not given here.
The target in experiment [2] is T1, Beta-secretase 1. The experiment can be described thus: Inhibition of BACE1 at 20 ug/ml by FRET assay.

T1 sequence (P56817 whole entry): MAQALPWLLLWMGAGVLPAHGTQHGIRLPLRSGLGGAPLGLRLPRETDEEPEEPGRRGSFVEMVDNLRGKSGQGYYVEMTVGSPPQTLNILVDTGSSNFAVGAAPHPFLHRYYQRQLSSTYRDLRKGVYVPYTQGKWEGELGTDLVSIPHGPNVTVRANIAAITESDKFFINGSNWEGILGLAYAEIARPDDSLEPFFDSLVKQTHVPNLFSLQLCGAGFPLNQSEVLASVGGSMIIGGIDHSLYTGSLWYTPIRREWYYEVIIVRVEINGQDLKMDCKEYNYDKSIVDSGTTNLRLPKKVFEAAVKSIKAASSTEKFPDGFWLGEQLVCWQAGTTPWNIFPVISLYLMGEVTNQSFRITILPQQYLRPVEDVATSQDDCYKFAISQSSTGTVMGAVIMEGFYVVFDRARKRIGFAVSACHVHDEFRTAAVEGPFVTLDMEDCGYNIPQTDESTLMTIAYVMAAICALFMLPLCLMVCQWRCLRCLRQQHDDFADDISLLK

The term inhibition denotes the share of the control response that was lost under treatment. One may read the IC50 as the concentration that inhibits the measured activity by half. Take `O=C(Cc1ccccc1Cl)Nc1cc(Br)ccc1OCCNC1CCCCC1`: the inhibition against Beta-secretase 1 [1] was determined as 87.7%. In addition, at Beta-secretase 1 [2], the IC50 is greater than 42.8 µM.
The molecule `CCCCCCNCCOc1ccc(Br)cc1NC(=O)Cc1ccccc1Cl` had an inhibition against Beta-secretase 1 [1] of 79.4%. For the same molecule, on Beta-secretase 1 [2], half-maximal inhibition (IC50) was put at 29.4 µM.
`O=C(Cc1ccccc1Cl)Nc1cc(Br)ccc1OCCN1CCCCC1`: the inhibition at Beta-secretase 1 [1] stood at 61.9%. This molecule had an IC50 against Beta-secretase 1 [2] greater than 44.2 µM.
In the same order, the values of `NCCCNCCOc1ccc(Br)cc1NC(=O)Cc1ccccc1Cl` are 77.9% and greater than 45.2 µM.
With `O=C(Cc1ccccc1)Nc1cc(Br)ccc1OCCN1CCOCC1`, the inhibition at Beta-secretase 1 [1] stood at 24.5%.
As to `O=C(Cc1ccccc1Cl)Nc1cc(Br)ccc1OCCNC1CC1`, the inhibition on Beta-secretase 1 [1] came to 77.1%. At Beta-secretase 1 [2], half-maximal inhibition (IC50) was put at 37.6 µM.
`O=C(Cc1cccc([N+](=O)[O-])c1)Nc1cc(Br)ccc1OCCN1CCOCC1`: the inhibition against Beta-secretase 1 [1] stood at 20.3%.
In the case of `O=C(Cc1ccccc1Cl)Nc1cc(Br)ccc1OCCN1CCOCC1`, at Beta-secretase 1 [1], the inhibition came to 36.8%.
Regarding `O=C(Cc1ccccc1Cl)Nc1cc(Br)ccc1OCCNCCCCCO`, the inhibition against Beta-secretase 1 [1] was found to be 67.5%. Further, at Beta-secretase 1 [2], the half-inhibitory concentration (IC50) is greater than 42.5 µM.
As for `COc1cccc(CC(=O)Nc2cc(Br)ccc2OCCN2CCOCC2)c1`, the inhibition against Beta-secretase 1 [1] is 20.9%.
Regarding `NCCCCCCNCCOc1ccc(Br)cc1NC(=O)Cc1ccccc1Cl`, the IC50 at Beta-secretase 1 [2] came out at 27.9 µM.

For the origin of these results see ChEMBL document CHEMBL1212843, “Dual-target-directed 1,3-diphenylurea derivatives: BACE 1 inhibitor and metal chelator against Alzheimer's disease” (Bioorg Med Chem, 2010).
